Patent US7851449B2, “Peptide, pharmaceutical composition, and a method of treating microcirculation disorders” (Obschestvo S Ogranichennoi Otvetstvennostyu “SIA Peptides”, priority 2006, dated 2010)
Marks after values point to notes of the source that are not given here. Peptide text beside a SMILES is read from it.

Experiments:
[1] = system: patients with purpura senilis; test: Hemostasis indices and Hess test in patients with purpura senilis; assay type: in vivo
Procedure: The study was conducted on 23 patients aged 70-82, suffering from purpura senilis, who complained of frequent spontaneous hemorrhages on the face, neck, forearms and hands. The patients reported progressive development of the disease.
The patients were randomly divided into two groups. The main group consisted of 12 patients, who were injected with pharmaceutical composition, containing peptide H-Lys-Glu-Asp-OH as its active base, in the dose of 100 μg in 1.0 ml of physiological solution daily intramuscularly for 10 days. Control group consisted of 11 patients, injected with sterile physiological solution following the same scheme.
Complains of the patients were analyzed in dynamics, also there were conducted general blood and urine tests, blood biochemical test. In order to study hemostasis there were made blood coagulogramm and Hess test with a tourniquet.

vascular wall explants = test: Development of vascular wall explants (area index); assay type: cell-based, Wistar rats
Procedure: The experiments were conducted on 32 fragments of vascular wall from the peripheral artery of Wistar rats with body weight of 150-200 g. Nutritional medium for explants cultivation consisted of 35% Eagle's solution, 25% calf fetal serum, 35% Hanx solution, 5% chicken embryonic extract, with the addition of glucose (0.6%), insulin (0,5 units/ml), penicillin (100 units/ml), glutamine (2 mM). […] Peptide H-Lys-Glu-Asp-OH was added into the medium, in the concentration of 1, 10, 100 and 200 ng/ml.
Area index (AI), i.e. the ratio of total explant area together with the growth zone to the initial area of vascular wall fragment served as the criterion of biologic activity. AI values were expressed in percent, control AI values being considered as 100%.

white mongrel male rats = test: Sub-acute toxicity, 90 days daily intramuscular administration; assay type: in vivo; details: daily i.m. 90 days, doses exceeding the therapeutic one by 100-1000 times
Procedure: The study of sub-acute toxicity was performed on 60 white mongrel male rats with body weight of 160-240 g. […] Morphology and properties of the animals' peripheral blood were studied before the administration of the substance, as well as on the 30th, 60th and 90th day after the beginning of the administration. Upon completion of the experiment biochemical and coagulologic indices of the blood were also evaluated.

[2] = system: skin capillaries of patients with hypovitaminosis; test: Skin capillary resistance in patients with hypovitaminosis (Rumpel-Leede-Konchalovskiy cuff test); assay type: in vivo
Procedure: The study was conducted on 25 patients aged 19-35, reporting signs of hypovitaminosis in spring. The patients were randomly divided into 2 groups.
The patients of the main group were divided into three sub-groups depending on the hypovitaminosis severity. Patients suffering from the severe hypovitaminosis were subjected to a daily single intramuscular injection of pharmaceutical composition containing H-Lys-Glu-Asp-OH peptide as its active base, in the dose of 5.0 mg in 1.0 ml of sterile 0.9% NaCl solution for 10 days; patients with moderately sever hypovitaminosis—in the dose of 100.0 μg, and patients with mild signs of hypovitaminosis—in the dose of 1.0 μg.
Control group consisted of 18 patients, subjected to an injection of physiological solution following the same scheme. Both groups received only balanced vitamin containing diet.
The estimation of the H-Lys-Glu-Asp-OH peptide effect on resistance of skin capillaries was conducted by means of Rumpel-Leede-Konchalovskiy capillary fragility test. A blood-pressure cuff was applied to the upper part of the arm of the patients. Then there was maintained pressure up to 200 mmHg for 3 minutes. Skin capillary resistance was evaluated on the area of the dosed load on skin capillaries (under the cuff). Hemorrhages were counted with a help of the magnifying glass.
Skin capillary resistance was graded according to the five-point scale: […]

male guinea pigs [3] = test: Chronic toxicity, 6 months daily intramuscular administration; peripheric blood morphology and biochemical indices; details: long-term administration
Procedure: (§1) The studies of chronic toxicity were conducted for 6 months, basing on the term of recommended clinical administration of the substance, on 96 male guinea pigs with body weight of 300-340 g. Experimental animals received the peptide daily, once a day, intramuscularly, for 6 months in the doses of 1 μg/kg, 0.1 mg/kg, 1 mg/kg in 0.5 ml of sterile 0.9% NaCl solution. Control animals received sterile 0.9% NaCl solution in the same volume and by the same schedule. Traditional methods were used for the evaluation of the following indices of the animals' peripheric blood: the quantity of erythrocytes, hemoglobin, reticulocytes, thrombocytes, leukocytes, leukocyte formula, erythrocyte sedimentation rate (ESR), erythrocyte resistance. Alongside with that, the content of total protein in the serum was identified using Lowry's method, as well as potassium and sodium content using the method of plasma spectrophotometry. Upon the completion of the experiment pathomorphologic studies of animal brain and spinal cord, spinal cord ganglia, thyroid gland, parathyroid glands, adrenal glands, testis, pituitary body, heart, lungs, aorta, liver, kidneys, urinary bladder, pancreas, stomach, small intestine, large intestine, thymus, spleen, lymph nodes and bone marrow were performed.

[4] = system: rats with experimental parodontitis; test: Microcirculation in rats with experimental parodontitis (gingiva biomicroscopy, laser dopplerography); assay type: in vivo; parameters: capillaries density per area unit: unit not given here; details: for diameter of the capillaries: in µm
Procedure: The experiments were conducted on 45 white mongrel male and female rats with body weight of 180-200 g. The model of light parodontitis was induced by the method of differentiated feeding of rats with standard granulated PK-120 forage for 1.5 months.
The animals were divided into 3 groups 15 rats in each: the animals of the first group, suffering from parodontitis didn't receive any treatment, rats in the second group suffering from experimental parodontitis were injected with 0.1 ml of sterile 0.9% NaCl solution into the mucous of the gingiva transitional fold (control); the animals of the third group with experimental parodontitis were subjected to a daily single injection of H-Lys-Glu-Asp-OH peptide in the dose of 2 μg in the 0.1 ml of sterile 0,9% NaCl solution into the mucous gingiva transitional fold with simultaneous rubbing in of peptide solution for 10 days.
During all experiments there was conducted a biomicroscopy of mucous membrane of the rats gingiva under nembutal anaesthesia with usage of contact object lenses and estimated the blood flow rate in capillaries by means of laser capillary blood flow analyzer LAKK-01. The studies were conducted in 3 areas of the gingiva, in the free gingiva, attached gingiva and transitional fold in case of 100 magnification. Clinical signs of the parodontitis were evaluated visually.

male guinea pigs [5] = details: in vivo
Procedure: as §1

SMILES: NCCCCC(N)C(=O)NC(CCC(=O)O)C(=O)NC(CC(=O)O)C(=O)O (stereo not drawn) [H-Lys-Glu-Asp-OH, lysyl-glutamyl-asparagine acid] (H-Lys-Glu-Asp-OH; configuration not given here)
- Ethanol test ([1]; 100 μg daily i.m. 10 days, healthy 0, control 43.8): 14.3** % of the positive cases
- Fibrinogen ([1]; 100 μg daily i.m. 10 days, healthy 3.2 ± 0.4, control 2.9 ± 0.1): 2.5 ± 0.1 g/L
- Prothrombin time ([1]; 100 μg daily i.m. 10 days, healthy 12.5 ± 0.1, control 12.4 ± 0.4): 13.3 ± 0.1 s
- Thrombin time ([1]; 100 μg daily i.m. 10 days, healthy 18.2 ± 0.6, control 16.0 ± 0.2): 17.1 ± 0.2 c
- Activated partial thromboplastin time ([1]; 100 μg daily i.m. 10 days, healthy 32.3 ± 2.1, control 48.0 ± 1.3): 58.9 ± 0.7 s
- Euglobulin fibrinolysis ([1]; 100 μg daily i.m. 10 days, healthy 150.0 ± 6.8, control 163.5 ± 5.0): 156.2 ± 3.9 min
- Time of recalcification ([1]; 100 μg daily i.m. 10 days, healthy 178.0 ± 14.0, control 147.3 ± 4.2): 164.2 ± 2.4
- Hess test (vascular walls durability) ([1]; after administration of the pharmaceutical composition): reduction in the number of hemorrhages
- Area index (AI) growth as compared to the control AI (vascular wall explants; 100 ng/ml, 3rd day of cultivation, statistically significant): 24%
- effect on vascular wall explants after longer cultivation (vascular wall explants; 7 days of cultivating, same concentrations): same stimulating effect
- side effects in long-term administration (subacute toxicity) (white mongrel male rats): absence of any side effects
- Cuff test indices ([2]; After administration, daily i.m. 1.0 μg, 100.0 μg or 5.0 mg by severity, 10 days, P < 0.05 vs before): II* (from 6 to 15)
- Cuff test indices ([2]; Before administration (baseline of the peptide group)): III-IV
- number of skin hemorrhages ([2]; before treatment, patients of both groups): 30-47
- number of skin hemorrhages ([2]; main group after the treatment, control group unchanged): 6-8
- pathologic alterations (general status, blood indices, organ morphology, cardiovascular, respiratory, liver and kidney functions) (male guinea pigs [3]): no pathologic alterations
- biomicroscopy of gingival mucous membrane ([4]; attached gingiva and transitional fold, 2 μg daily for 10 days): complete correction of the microcirculation
- index of microcirculation (IM) ([4]; attached gingiva, 2 μg daily for 10 days, NaCl control 0.63±0.04): 0.22±0.05
- diameter of the capillaries ([4]; attached gingiva, 2 μg daily for 10 days, NaCl control 9.8±0.35): 7.8±0.20
- blood flow rate (laser dopplerography) ([4]; attached gingiva, 2 μg daily for 10 days, NaCl control 17±0.7): 20±1.1 conv. units
- capillaries density per area unit ([4]; average of gingiva parts, 2 μg daily for 10 days, norm 29.3±2.3, NaCl control 30±1.5): 34±2.7
- diameter of the capillaries ([4]; free gingiva, 2 μg daily for 10 days, NaCl control 12.3±0.36 (μm printed only)): 8.2±0.1
- blood flow rate (laser dopplerography) ([4]; free gingiva, 2 μg daily for 10 days, norm 18±1.3, NaCl control 15±1.5): 20±0.9 conv. units
- index of microcirculation (IM) ([4]; free gingiva, 2 μg daily into gingiva for 10 days, normal 0.21±0.30, NaCl control 0.75±0.03): 0.29±0.15
- index of microcirculation (IM) ([4]; transitional fold, 2 μg daily for 10 days, NaCl control 0.39±0.02): 0.20±0.18
- diameter of the capillaries ([4]; transitional fold, 2 μg daily for 10 days, NaCl control 9.1±0.09): 6.57±0.1
- blood flow rate (laser dopplerography) ([4]; transitional fold, 2 μg daily for 10 days, NaCl control 19±1.2): 19±2.3 conv. units
- side effects in long-term administration (chronic toxicity) (male guinea pigs [5]; guinea pig): absence of any side effects
- changes in guinea pig blood morphology and biochemical indices (male guinea pigs [5]): no statistically significant changes
